Assay results as given in ChEMBL document CHEMBL4482310, “Inhibitors of grb2-associated binding protein 1 (gab1) and methods of treating cancer using the same” (2017).

Tests used:
[1] = molecular target: T1, Insulin receptor substrate 1 (Homo sapiens) (UniProt P35568); experiment: Inhibition of HGF-induced IRS1 phosphorylation in human T47D cells assessed as pSer312 IRS1/total-IRS1 ratio level at 20 uM pre-incubated for 4 hrs before stimulation with HGF for 20 mins (reference value: 100 +/- 0.02%); assay type: cell-based; parameters: scale not given: the % may be the effect or the level left
T1 sequence (whole entry): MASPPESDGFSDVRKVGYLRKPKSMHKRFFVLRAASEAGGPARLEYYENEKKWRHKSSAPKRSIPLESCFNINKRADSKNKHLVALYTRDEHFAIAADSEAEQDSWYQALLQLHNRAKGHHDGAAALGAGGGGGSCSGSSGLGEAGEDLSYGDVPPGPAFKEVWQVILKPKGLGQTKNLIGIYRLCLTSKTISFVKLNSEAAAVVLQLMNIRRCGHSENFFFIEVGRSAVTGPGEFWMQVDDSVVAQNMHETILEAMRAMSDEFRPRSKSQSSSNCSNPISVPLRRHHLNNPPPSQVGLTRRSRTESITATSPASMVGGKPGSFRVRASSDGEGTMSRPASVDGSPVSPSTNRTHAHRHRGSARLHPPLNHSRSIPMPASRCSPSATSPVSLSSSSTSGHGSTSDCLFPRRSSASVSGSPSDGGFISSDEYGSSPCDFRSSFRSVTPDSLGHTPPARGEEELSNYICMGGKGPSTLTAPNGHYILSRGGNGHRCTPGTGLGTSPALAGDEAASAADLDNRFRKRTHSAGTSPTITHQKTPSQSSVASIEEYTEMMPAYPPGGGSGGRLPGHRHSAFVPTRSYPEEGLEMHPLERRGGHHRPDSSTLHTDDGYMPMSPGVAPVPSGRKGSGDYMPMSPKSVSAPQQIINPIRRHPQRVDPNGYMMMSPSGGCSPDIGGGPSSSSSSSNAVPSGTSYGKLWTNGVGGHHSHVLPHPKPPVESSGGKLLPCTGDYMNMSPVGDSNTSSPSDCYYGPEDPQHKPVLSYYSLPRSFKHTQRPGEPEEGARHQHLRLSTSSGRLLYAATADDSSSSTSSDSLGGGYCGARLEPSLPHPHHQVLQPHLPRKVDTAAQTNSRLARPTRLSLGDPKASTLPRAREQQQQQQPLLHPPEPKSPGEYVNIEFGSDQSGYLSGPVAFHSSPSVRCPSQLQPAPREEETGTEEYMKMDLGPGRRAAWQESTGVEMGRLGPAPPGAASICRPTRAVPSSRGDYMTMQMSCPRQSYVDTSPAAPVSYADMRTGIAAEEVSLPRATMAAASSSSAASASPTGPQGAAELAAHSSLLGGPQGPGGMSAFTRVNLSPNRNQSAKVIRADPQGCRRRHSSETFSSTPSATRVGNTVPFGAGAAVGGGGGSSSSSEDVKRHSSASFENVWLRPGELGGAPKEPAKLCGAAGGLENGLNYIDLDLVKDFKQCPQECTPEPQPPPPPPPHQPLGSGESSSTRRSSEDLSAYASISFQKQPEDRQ

[2] = molecular target: T2, Insulin receptor substrate 1 (Homo sapiens, UniProt P35568); experiment: Binding affinity to recombinant human IRS1 PH domain expressed in Escherichia coli BL21 (DE3) by surface plasmon resonance assay
T2 sequence (P35568 whole entry): T1 sequence (whole entry)

MCF-10A [3] = experiment: Cytotoxicity in human MCF10A cells assessed as reduction in cell viability incubated for 4 days by MTT assay; assay type: cell-based; details: 96 h
[4] = molecular target: T3, GRB2-associated-binding protein 1 (Homo sapiens, UniProt Q13480); experiment: Binding affinity to recombinant human GAB1 PH domain expressed in Escherichia coli BL21 (DE3) by surface plasmon resonance assay
T3 sequence (Q13480 whole entry): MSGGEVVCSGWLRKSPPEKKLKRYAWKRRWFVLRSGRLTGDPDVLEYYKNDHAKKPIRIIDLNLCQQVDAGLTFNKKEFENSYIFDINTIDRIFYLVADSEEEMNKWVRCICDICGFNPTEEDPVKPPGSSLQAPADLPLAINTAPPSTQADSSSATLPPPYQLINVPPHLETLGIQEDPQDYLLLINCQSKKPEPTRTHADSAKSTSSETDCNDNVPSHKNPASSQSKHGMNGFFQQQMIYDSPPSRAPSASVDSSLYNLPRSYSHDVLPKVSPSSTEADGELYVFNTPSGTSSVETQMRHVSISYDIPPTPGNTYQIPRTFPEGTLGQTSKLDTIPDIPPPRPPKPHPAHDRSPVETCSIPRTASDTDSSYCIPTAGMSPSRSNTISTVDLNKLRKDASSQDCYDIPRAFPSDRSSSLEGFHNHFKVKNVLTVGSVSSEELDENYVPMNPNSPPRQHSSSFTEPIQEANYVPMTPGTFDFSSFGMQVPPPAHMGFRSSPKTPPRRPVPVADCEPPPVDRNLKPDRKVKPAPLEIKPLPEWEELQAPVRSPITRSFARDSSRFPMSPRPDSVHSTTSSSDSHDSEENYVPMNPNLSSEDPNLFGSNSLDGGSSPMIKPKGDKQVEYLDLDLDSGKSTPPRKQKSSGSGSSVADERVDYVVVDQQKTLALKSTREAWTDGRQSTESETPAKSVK

MDA-MB-231 = experiment: Cytotoxicity in human MDA-MB-231 cells assessed as reduction in cell viability incubated for 4 days by MTT assay; assay type: functional, cell-based
MCF-10A [5] = experiment: Cytotoxicity in human MCF10A cells assessed as reduction in cell viability at 100 uM incubated for 4 days by MTT assay; assay type: cell-based; details: 96 h
T47D = experiment: Cytotoxicity in human T47D cells assessed as reduction in cell viability incubated for 4 days by MTT assay; assay type: functional, cell-based
[6] = molecular target: T4, GRB2-associated-binding protein 1 (Homo sapiens) (UniProt Q13480); experiment: Inhibition of HGF-stimulated GAB1 Y627 phosphorylation in human T47D cells at 20 uM pre-incubated for 4 hrs before stimulation with HGF for 20 mins; assay type: cell-based
T4 sequence (whole entry): T3 sequence (Q13480 whole entry)

Compound | Activity [1] [%] | Kd ([2]; read-out: Kd) [nM] | Kd [2] | Kd [4] | further results
CCCCCCCCCCCCc1ccc(S(=O)(=O)Nc2nnc(CC(=O)O)s2)cc1 | 69 | 50 | – | – | –
CCCCCCCCCCCCc1ccc(S(=O)(=O)Nc2nnc(S(N)(=O)=O)s2)cc1 | 115 | – | Not Active | – | –
COc1cc(NS(=O)(=O)c2ccc(NS(=O)(=O)c3c(C)noc3C)cc2)nc(OC)n1 | 91.7 | – | Not Active | Not Active | IC50 (T47D): Not Active; IC50 (MDA-MB-231): Not Active; Activity (MCF-10A [5]): Non-Toxic
Cc1onc(-c2ccccc2)c1-c1nc(CSc2nc3ccccc3[nH]2)no1 | 31.1 | 120 | – | Not Active | –
CCCCCCCCCCCCc1ccc(S(=O)(=O)Nc2nnc(CC(=O)OCC)s2)cc1 | 60.6 | 150 | – | – | Activity (MCF-10A [3]): Non-Toxic; Kd ([4]; read-out: Kd): 900 nM; inhibition [6]: 96%
Cc1nc(-c2ccc(S(=O)(=O)N3CCN(C4c5ccccc5-c5ccccc54)CC3)s2)cs1 | 98.7 | – | – | – | –
CCCCCCCCCCCCCCCCCCOC[C@H](COP(=O)(O)O[C@H]1[C@H](O)[C@@H](O)[C@H](O)C[C@H]1O)OC | 116 | – | – | – | inhibition [6]: 72%
CCCCCCCCCCCCc1ccc(S(=O)(=O)Nc2nncs2)cc1 | 61.3 | – | – | – | Kd ([4]; read-out: Kd): 1330 nM
CCCCCCCCCCCCc1ccc(S(=O)(=O)Nc2nnc(C(=O)OCC)s2)cc1 | 78.4 | 50 | – | – | Activity (MCF-10A [3]): Non-Toxic; Kd ([4]; read-out: Kd): 680 nM; inhibition [6]: 82%

Further lines, with some results ahead:

Activity [1] [%] | Kd ([2]; read-out: Kd) [nM] | Kd [2] | Kd [4] | Compound | further results
40.7 | – | Not Active | – | O=c1[nH]nc(SCc2csc(-c3ccccc3)n2)n1Cc1ccco1 | Activity (MCF-10A [3]): Non-Toxic; Kd ([4]; read-out: Kd): 2200 nM
46.5 | – | Not Active | – | O=S(=O)(NCc1csc2ccc(Cl)cc12)c1cc(S(=O)(=O)c2ccccc2)cs1 | Activity (MCF-10A [3]): Non-Toxic
89.9 | – | Not Active | Not Active | Cc1nnc(NS(=O)(=O)c2ccc(NS(=O)(=O)c3ccc4ccccc4c3)cc2)s1 | –
75.6 | – | Not Active | Not Active | O=C(O)c1ccccc1C(=O)Nc1ccccc1SCCS(=O)(=O)c1ccc(Cl)cc1 | IC50 (MDA-MB-231): Not Active; Activity (MCF-10A [5]): Non-Toxic
79.7 | 1600 | – | – | CS(=O)(=O)CCSc1ncccc1C(=O)Sc1ccc(Cl)cc1Cl | Activity (MCF-10A [3]): Non-Toxic; Kd ([4]; read-out: Kd): 42300 nM
84.8 | – | Not Active | Not Active | Cn1c(Cc2ccsc2)nnc1SCC(=O)Nc1cc(Cl)cc(Cl)c1 | IC50 (T47D): Not Active; IC50 (MDA-MB-231): Not Active
102 | – | Not Active | Not Active | CS(=O)(=NS(=O)(=O)c1ccc(-c2ccccn2)s1)c1ccc(Cl)cc1 (stereo unspecified) | IC50 (T47D): Not Active; IC50 (MDA-MB-231): Not Active
100 | – | Not Active | Not Active | Cc1noc(C)c1NC(=O)NCc1csc(-c2cccs2)n1 | –
64.4 | – | – | – | CCc1ccc(C(=O)OC)cc1CSc1nnc(-c2ccc(C(F)(F)F)cc2)n1Cc1ccoc1 | –
101 | 16200 | – | Not Active | O=S(=O)(NCc1csc(-c2cccs2)n1)c1ccc(N2CCOCC2)nc1 | IC50 (MDA-MB-231): Not Active
98.2 | – | Not Active | Not Active | Cc1cc2ncc(-c3cnc(SCCS(=O)(=O)c4ccc(Cl)cc4)nc3)c(C)n2n1 | –
83.2 | 16400 | – | – | Cn1cnc(S(=O)(=O)Nc2ccccc2SCCS(=O)(=O)c2ccc(Cl)cc2)c1 | Kd ([4]; read-out: Kd): 2100 nM
